Results reported in patent publication US6753000B2, “Hydroxystilbene/ascorbic acid compositions for treating skin afflictions” (L'Oreal, priority 1999, dated 2004).

Tested on: normal human dermal fibroblast cultures
Assay: Incorporation of radioactive (tritiated) thymidine into normal human dermal fibroblast cultures (fibroblast proliferation)
Format: cell-based
Conditions: for % (thymidine incorporation relative to untreated control = 100) / cpm (counts per minute), tritiated thymidine incorporated: 48 hours contact, 24 hours labeling, EGF 1.67 × 10^−3 μM, vitamin C 20 μM, resveratrol 5 μM, or 5 μM resveratrol + 20 μM vitamin C; for cpm (counts per minute), tritiated thymidine incorporated: untreated control 10320; for %, difference relative to the untreated control / cpm, difference relative to the untreated control: same treatments, value in brackets
Description: The study has carried out by measuring the incorporation of radioactive thymidine into normal human dermal fibroblast cultures.
The fibroblast cultures were prepared according to the standard methods of cell culturing, i.e., in MEM/M199 medium marketed by Gibco, in the presence of sodium bicarbonate (1.87 mg/ml), L-glutamine (2 mM), penicillin (50 IU/ml) and 10% foetal calf serum (Gibco).
The test was carried out on cell cultures at 80% of confluence on 24-well plates. Resveratrol, at a concentration of 1.25 μM and 5 μM, was placed in contact with the cells for 48 hours. Labeling with tritiated thymidine ([methyl-3H] thymidine marketed by Amersham, 82 Ci/mmol) was carried out for 24 hours.
The level of tritiated thymidine incorporated was measured at the end of the test by acidic precipitation of the proteins on filters and counting by liquid scintillation.
The results were evaluated relative to a control consisting of cells which had not been treated.
A positive control [EGF: Epidermal Growth Factor] at 1.67×10^−3 μM, which was known to stimulate fibroblast proliferation, was introduced into the test by way of reference.

Oc1ccc(C=Cc2cc(O)cc(O)c2)cc1 [resveratrol, 3,4′,5-Trihydroxystilbene]
% (thymidine incorporation relative to untreated control = 100): 110% | cpm (counts per minute), tritiated thymidine incorporated: 11365 cpm | %, difference relative to the untreated control: +10% | cpm, difference relative to the untreated control: (+1045) cpm

O=C1O[C@H]([C@@H](O)CO)C(O)=C1O [vitamin C, ascorbic acid]
% (thymidine incorporation relative to untreated control = 100): 132% | cpm (counts per minute), tritiated thymidine incorporated: 13595 cpm | %, difference relative to the untreated control: +32% | cpm, difference relative to the untreated control: (+3275) cpm

EGF: Epidermal Growth Factor, positive control known to stimulate fibroblast proliferation
% (thymidine incorporation relative to untreated control = 100): 283% | cpm (counts per minute), tritiated thymidine incorporated: 29214 cpm | %, difference relative to the untreated control: +183% | cpm, difference relative to the untreated control: (+18894) cpm
